pIC50: −log10 of the molar value.

One assay addresses T1, human TREK-1 (Homo sapiens, UniProt O95069).
T1 construct: expressed in transfected cells
T1 sequence (O95069 1-426): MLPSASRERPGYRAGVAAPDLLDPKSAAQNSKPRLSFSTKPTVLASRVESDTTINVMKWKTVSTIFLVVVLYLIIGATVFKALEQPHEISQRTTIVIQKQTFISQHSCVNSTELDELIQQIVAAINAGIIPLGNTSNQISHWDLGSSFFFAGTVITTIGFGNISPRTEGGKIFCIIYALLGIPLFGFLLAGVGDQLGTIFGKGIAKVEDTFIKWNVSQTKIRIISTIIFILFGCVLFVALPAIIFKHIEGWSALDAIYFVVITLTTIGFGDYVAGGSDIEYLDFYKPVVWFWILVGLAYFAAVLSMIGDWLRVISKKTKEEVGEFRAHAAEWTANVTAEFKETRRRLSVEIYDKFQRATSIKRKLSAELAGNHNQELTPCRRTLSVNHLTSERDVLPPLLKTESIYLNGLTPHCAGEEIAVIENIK
Kind of assay: TREK-1 Thallium (Tl+) flux assay, Method 1. In kind it is cell-based. Conditions: TREK-1 Thallium (Tl+) flux assay, Method 1. An outline of the steps: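 CHO-K1 cells stably expressing human TREK-1, loaded with Thallos dye, received compound or 0.3% DMSO vehicle for 10 min before thallium stimulus buffer. ΔRatio is fluorescence at 25 s after thallium addition over mean pre-addition fluorescence; % inhibition calculated from it.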
A word on the pIC50: it is the negative decadic logarithm of the IC50, by convention in mol/L. A lower pIC50 goes with a high IC50. In the case of `Cc1cc(-c2cnn(-c3ccccc3F)c2)cnc1NC(=O)c1c(Cl)cnn1C1CCN(C(=O)OC(C)(C)C)CC1` [Compound 436, tert-butyl 4-(4-chloro-5-((5-(1-(2-fluorophenyl)-1H-pyrazol-4-yl)-3-methylpyridin-2-yl)carbamoyl)-1H-pyrazol-1-yl)piperidine-1-carboxylate], the pIC50 is 5.03. Turning to `Cc1cc(OCc2ccccc2)ccc1NC(=O)c1c(Cl)cnn1CC1CN(C(=O)CC(C)C)CCO1` (centres unmarked) [Compound 429, N-(4-(benzyloxy)-2-methylphenyl)-4-chloro-1-((4-(3-methylbutanoyl)morpholin-2-yl)methyl)-1H-pyrazole-5-carboxamide], the pIC50 is 5.26. This pIC50 is 0.23 log units higher than that of the molecule before. Same read-out and setting: under `CC(=O)N1CCC(n2ncc(Cl)c2C(=O)Nc2ncc(OCc3ccccc3)cc2C)CC1` [Compound 393, 1-(1-acetylpiperidin-4-yl)-N-(5-(benzyloxy)-3-methylpyridin-2-yl)-4-chloro-1H-pyrazole-5-carboxamide] stands 5.90; under `Cc1cc(-c2cnn(-c3ccc(F)cc3)c2)cnc1NC(=O)c1c(Cl)cnn1[C@H]1CCOC1` [Compound 395, (S)-4-chloro-N-(5-(1-(4-fluorophenyl)-1H-pyrazol-4-yl)-3-methylpyridin-2-yl)-1-(tetrahydrofuran-3-yl)-1H-pyrazole-5-carboxamide], 5.85.

In turn, `Cc1cc(OCc2ccccc2)ccc1NC(=O)c1c(Cl)cnn1C1CCN(C(=O)C(C)C)CC1` [Compound 411, N-(4-(benzyloxy)-2-methylphenyl)-4-chloro-1-(1-isobutyrylpiperidin-4-yl)-1H-pyrazole-5-carboxamide] gave a pIC50 of 5.55. Against the preceding molecule, the pIC50 is 0.30 log units lower.

Staying with this assay, now noted: TREK-1 Thallium (Tl+) flux assay; no *^12 (Method 2) mark on these rows.
In the case of `Cc1cc(C#Cc2ccc(F)cc2)cnc1NC(=O)c1c(Cl)cnn1C[C@@H]1CCCN(C(=O)OC(C)(C)C)C1` [Compound 344, tert-butyl (R)-3-((4-chloro-5-((5-((4-fluorophenyl)ethynyl)-3-methylpyridin-2-yl)carbamoyl)-1H-pyrazol-1-yl)methyl)piperidine-1-carboxylate], the pIC50 was 6.12. `Cc1cc(C#Cc2ccc(F)cc2)cnc1NC(=O)c1c(Cl)cnn1C1CCN(C(=O)CC(C)C)C1` (centres unmarked) [Compound 258, 4-chloro-N-(5-((4-fluorophenyl)ethynyl)-3-methylpyridin-2-yl)-1-(1-(3-methylbutanoyl)pyrrolidin-3-yl)-1H-pyrazole-5-carboxamide] showed a pIC50 of 6.38. On the same count and under the same terms, under `CC(C)(C)OC(=O)N1CCC(CCn2ncc(Cl)c2C(=O)Nc2ncc(C#Cc3ccccc3)cc2F)CC1` [Compound 290, tert-butyl 4-(2-(4-chloro-5-((3-fluoro-5-(phenylethynyl)pyridin-2-yl)carbamoyl)-1H-pyrazol-1-yl)ethyl)piperidine-1-carboxylate] stands 6.29; under `Cc1cc(C#Cc2ccc(F)cc2)cnc1NC(=O)c1c(Cl)cnn1CC1CCN(C(=O)C(C)C)CC1(F)F` (centres unmarked) [Compound 350, 4-chloro-1-((3,3-difluoro-1-isobutyrylpiperidin-4-yl)methyl)-N-(5-((4-fluorophenyl)ethynyl)-3-methylpyridin-2-yl)-1H-pyrazole-5-carboxamide], 6.09; under `Cc1cc(C#Cc2ccc(F)cc2)cnc1NC(=O)c1c(Cl)cnn1CC1CCCN(C(=O)C2CC2)C1` (centres unmarked) [Compound 271, 4-chloro-1-((1-(cyclopropanecarbonyl)piperidin-3-yl)methyl)-N-(5-((4-fluorophenyl)ethynyl)-3-methylpyridin-2-yl)-1H-pyrazole-5-carboxamide], 6.34.

`Cc1cc(C#Cc2ccccc2)cnc1NC(=O)c1c(Cl)cnn1C[C@@H]1CCN(C(=O)OC(C)(C)C)C[C@H]1F` [Compound 241, tert-butyl (3S,4S)-4-((4-chloro-5-((3-methyl-5-(phenylethynyl)pyridin-2-yl)carbamoyl)-1H-pyrazol-1-yl)methyl)-3-fluoropiperidine-1-carboxylate] showed a pIC50 of 6.43. `Cc1cc(C#Cc2ccccc2)cnc1NC(=O)c1c(Cl)cnn1C1CCN(C(=O)OC(C)(C)C)C[C@H]1F` (stereo in doubt) [Compound 336, tert-butyl (3R,4R)-4-(4-chloro-5-((3-methyl-5-(phenylethynyl)pyridin-2-yl)carbamoyl)-1H-pyrazol-1-yl)-3-fluoropiperidine-1-carboxylate] had a pIC50 of 6.15. Same read-out and setting: under `Cc1cc(C#Cc2ccccc2)cnc1NC(=O)c1c(Cl)cnn1C1CCN(C(=O)OC(C)(C)C)CC1` [Compound 328] stands 6.19; under `CC(C)(C)C(=O)N1CCC(n2ncc(Cl)c2C(=O)Nc2ncc(C#Cc3cccs3)cc2F)CC1` [Compound 247, 4-chloro-N-(3-fluoro-5-(thiophen-2-ylethynyl)pyridin-2-yl)-1-(1-pivaloylpiperidin-4-yl)-1H-pyrazole-5-carboxamide], 6.41. Same read-out and setting: under `Cc1cc(C#Cc2ccc(F)cc2)cnc1NC(=O)c1c(Cl)cnn1C1CC2(CCN(C(=O)C3CC3)C2)C1` (single isomer, unassigned) [Compound 363, 4-chloro-1-[(2s,4r)-6-(cyclopropanecarbonyl)-6-azaspiro[3.4]octan-2-yl]-N-{5-[(4-fluorophenyl)ethynyl]-3-methylpyridin-2-yl}-1H-pyrazole-5-carboxamide or 4-chloro-1-[(2r,4s)-6-(cyclopropanecarbonyl)-6-azaspiro[3.4]octan-2-yl]-N-{5-[(4-fluorophenyl)ethynyl]-3-methylpyridin-2-yl}-1H-pyrazole-5-carboxamide] stands 6.04; under `CC(C)C(=O)N1CCC[C@H](Cn2ncc(Cl)c2C(=O)Nc2ncc(C#Cc3ccccc3)cc2F)C1` [Compound 288, (S)-4-chloro-N-(3-fluoro-5-(phenylethynyl)pyridin-2-yl)-1-((1-isobutyrylpiperidin-3-yl)methyl)-1H-pyrazole-5-carboxamide], 6.30. The same measure, in the same setting: under `Cc1cc(C#Cc2cccc(F)c2)cnc1NC(=O)c1c(Cl)cnn1C1CCN(C(=O)C(C)(C)C)CC1` [Compound 205, 4-chloro-N-(5-((3-fluorophenyl)ethynyl)-3-methylpyridin-2-yl)-1-(1-pivaloylpiperidin-4-yl)-1H-pyrazole-5-carboxamide] stands 6.51.

Still in this assay, the particulars now being: TREK-1 Thallium (Tl+) flux assay; values without footnote *12 are Method 1.
`CC(=O)N1CCC(CCn2ncc(Cl)c2C(=O)Nc2ncc(C#Cc3ccccc3)cc2C)CC1` [Compound 153, 1-(2-(1-acetylpiperidin-4-yl)ethyl)-4-chloro-N-(3-methyl-5-(phenylethynyl)pyridin-2-yl)-1H-pyrazole-5-carboxamide] showed a negative-log IC50 (pIC50) of 6.62.

Regarding `Cc1cc(C#Cc2cccc(F)c2)cnc1NC(=O)c1c(Cl)cnn1CC1CCN(C(=O)C2COCCO2)CC1` (centres unmarked) [Compound 104, 1-((1-(1,4-dioxane-2-carbonyl)piperidin-4-yl)methyl)-4-chloro-N-(5-((3-fluorophenyl)ethynyl)-3-methylpyridin-2-yl)-1H-pyrazole-5-carboxamide], the negative logarithm of the IC50 (pIC50) is 6.72. The same measure, in the same setting: under `Cc1cc(C#Cc2cccs2)cnc1NC(=O)c1c(Cl)cnn1CC1CCN(C(=O)C2CC2)CC1` [Compound 57, 4-chloro-1-((1-(cyclopropanecarbonyl)piperidin-4-yl)methyl)-N-(3-methyl-5-(thiophen-2-ylethynyl)pyridin-2-yl)-1H-pyrazole-5-carboxamide] stands 6.85; under `Cc1cc(C#Cc2cccs2)cnc1NC(=O)c1c(Cl)cnn1C1CCN(C(=O)C2CC2)CC1` [Compound 63, 4-chloro-1-(1-(cyclopropanecarbonyl)piperidin-4-yl)-N-(3-methyl-5-(thiophen-2-ylethynyl)pyridin-2-yl)-1H-pyrazole-5-carboxamide], 6.82; under `Cc1cc(C#Cc2ccccc2)cnc1NC(=O)c1c(Cl)cnn1CC1(C#N)CCN(C(=O)OC(C)(C)C)CC1` [Compound 126, tert-butyl 4-((4-chloro-5-((3-methyl-5-(phenylethynyl)pyridin-2-yl)carbamoyl)-1H-pyrazol-1-yl)methyl)-4-cyanopiperidine-1-carboxylate], 6.68. Still for that read-out and setting: under `Cc1cc(C#Cc2ccccc2)cnc1NC(=O)c1c(Cl)cnn1C[C@@H]1CCOC1` [Compound 160, (S)-4-chloro-N-(3-methyl-5-(phenylethynyl)pyridin-2-yl)-1-((tetrahydrofuran-3-yl)methyl)-1H-pyrazole-5-carboxamide] stands 6.59. Still for that read-out and setting: under `Cc1cc(C#Cc2cccc(F)c2)cnc1NC(=O)c1c(Cl)cnn1C1CCN(C(=O)C2CC2)CC1` [Compound 143, 4-chloro-1-(1-(cyclopropanecarbonyl)piperidin-4-yl)-N-(5-((3-fluorophenyl)ethynyl)-3-methylpyridin-2-yl)-1H-pyrazole-5-carboxamide] stands 6.64. For `CCC(=O)N1CCC(n2ncc(Cl)c2C(=O)Nc2ncc(C#Cc3ccccc3)cc2C)CC1` [Compound 41, 4-chloro-N-(3-methyl-5-(phenylethynyl)pyridin-2-yl)-1-(1-propionylpiperidin-4-yl)-1H-pyrazole-5-carboxamide], the pIC50 was 6.89.

Still in this assay, the particulars now being: read-out: Tl^+ Assay % inhibition at 30 uM (Minus value indicates activation of TREK-1); at 30 uM; CHO-K1 cells stably expressing human TREK-1; minus = activation.
The term inhibition denotes the change of the read-out against control, counted positive when it falls. Turning to `Cn1ncc2c1CC(n1cc(Cl)c(C(=O)Nc3ncc(C#Cc4ccccc4)cc3F)n1)CC2=O` (centres unmarked) [Compound 453, 4-chloro-N-(3-fluoro-5-(phenylethynyl)pyridin-2-yl)-1-(1-methyl-4-oxo-4,5,6,7-tetrahydro-1H-indazol-6-yl)-1H-pyrazole-3-carboxamide], the inhibition at 30 µM is -56%.

For the origin of these results see patent US20240182445A1 (ONO PHARMACEUTICAL CO., LTD., priority 2019, published 2024).
